Laboratory results: publication PMC5564600 (Oncotarget, 2017)
Where two headings read alike, the source gives them in different places.

Columns and labels:
Assay in all cases: biochemical
Assay type in all cases: binding
[1] = target: T1, panel of 442 kinases (Homo sapiens, UniProt P42684); details: ABL2; for remaining activity at 1 µM: read-out: % of control at 1 µM
T1 construct: purchased Ambit Biosciences (scanMAXX KINOMEscan)

[2] = target: T2, panel of 442 kinases (Homo sapiens, UniProt P49336); details: CDK8; for remaining activity at 1 µM: read-out: % of control at 1 µM
T2 construct: purchased Ambit Biosciences (scanMAXX KINOMEscan)

[3] = target: T3, panel of 442 kinases (Homo sapiens, UniProt P68400); details: CSNK2A1; for remaining activity at 1 µM: read-out: % of control at 1 µM
T3 construct: purchased Ambit Biosciences (scanMAXX KINOMEscan)

[4] = target: T4, panel of 442 kinases (Homo sapiens, UniProt O96017); details: CHEK2; for remaining activity at 1 µM: read-out: % of control at 1 µM
T4 construct: purchased Ambit Biosciences (scanMAXX KINOMEscan)

[5] = target: T5, panel of 442 kinases (Homo sapiens, UniProt Q9UK32)
T5 construct: purchased Ambit Biosciences (scanMAXX KINOMEscan)

[6] = target: T6, panel of 442 kinases (Homo sapiens, UniProt P42680); details: kinase TEC; for remaining activity at 1 µM: read-out: TEC (% of control at 1 µM)
T6 construct: purchased Ambit Biosciences (scanMAXX KINOMEscan)
T6 sequence (P42680 1-631): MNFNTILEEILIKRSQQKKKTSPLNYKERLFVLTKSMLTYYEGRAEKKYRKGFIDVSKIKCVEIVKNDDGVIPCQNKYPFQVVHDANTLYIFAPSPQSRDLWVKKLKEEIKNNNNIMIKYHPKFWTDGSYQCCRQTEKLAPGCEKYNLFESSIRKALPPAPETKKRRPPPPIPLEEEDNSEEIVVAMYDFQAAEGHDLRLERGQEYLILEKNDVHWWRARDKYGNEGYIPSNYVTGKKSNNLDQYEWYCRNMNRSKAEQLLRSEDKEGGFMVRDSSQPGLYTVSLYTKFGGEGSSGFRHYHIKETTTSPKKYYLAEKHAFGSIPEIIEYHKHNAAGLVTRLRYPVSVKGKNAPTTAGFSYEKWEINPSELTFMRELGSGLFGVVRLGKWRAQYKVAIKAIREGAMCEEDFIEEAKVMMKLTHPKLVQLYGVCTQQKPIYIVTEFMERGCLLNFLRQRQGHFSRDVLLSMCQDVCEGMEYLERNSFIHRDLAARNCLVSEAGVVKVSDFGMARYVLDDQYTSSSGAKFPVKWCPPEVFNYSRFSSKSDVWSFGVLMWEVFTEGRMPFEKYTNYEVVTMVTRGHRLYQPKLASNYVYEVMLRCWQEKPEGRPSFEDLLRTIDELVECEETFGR

[7] = target: T7, panel of 442 kinases (Homo sapiens, UniProt O75116); details: kinase ROCK2; for remaining activity at 1 µM: read-out: ROCK2 (% of control at 1 µM)
T7 construct: purchased Ambit Biosciences (scanMAXX KINOMEscan)

[8] = target: T8, panel of 442 kinases (Homo sapiens, UniProt Q13882); details: BRK; for remaining activity at 1 µM: read-out: % of control at 1 µM
T8 construct: purchased Ambit Biosciences (scanMAXX KINOMEscan)

[9] = target: T9, panel of 442 kinases (Homo sapiens, UniProt Q9H3Y6); details: kinase SRMS; for remaining activity at 1 µM: read-out: SRMS (% of control at 1 µM)
T9 construct: purchased Ambit Biosciences (scanMAXX KINOMEscan)

[10] = target: T10, panel of 442 kinases (Homo sapiens, UniProt Q8N5S9); details: CAMKK1; for remaining activity at 1 µM: read-out: % of control at 1 µM
T10 construct: purchased Ambit Biosciences (scanMAXX KINOMEscan)

[11] = target: T11, panel of 442 kinases (Homo sapiens, UniProt P10721, V559D); details: kinase KIT(V559D); for remaining activity at 1 µM: read-out: % of control at 1 µM
T11 construct: purchased Ambit Biosciences (scanMAXX KINOMEscan)

[12] = target: T12, panel of 442 kinases (Homo sapiens, UniProt Q96NX5); details: CAMK1G; for remaining activity at 1 µM: read-out: % of control at 1 µM
T12 construct: purchased Ambit Biosciences (scanMAXX KINOMEscan)

[13] = target: T13, panel of 442 kinases (Homo sapiens, UniProt Q16620); details: kinase TRKB; for remaining activity at 1 µM: read-out: TRKB (% of control at 1 µM)
T13 construct: purchased Ambit Biosciences (scanMAXX KINOMEscan)

[14] = target: T14, panel of 442 kinases (Homo sapiens, UniProt Q9BRS2); details: kinase RIOK1; for remaining activity at 1 µM: read-out: RIOK1 (% of control at 1 µM)
T14 construct: purchased Ambit Biosciences (scanMAXX KINOMEscan)
T14 sequence (Q9BRS2 1-568): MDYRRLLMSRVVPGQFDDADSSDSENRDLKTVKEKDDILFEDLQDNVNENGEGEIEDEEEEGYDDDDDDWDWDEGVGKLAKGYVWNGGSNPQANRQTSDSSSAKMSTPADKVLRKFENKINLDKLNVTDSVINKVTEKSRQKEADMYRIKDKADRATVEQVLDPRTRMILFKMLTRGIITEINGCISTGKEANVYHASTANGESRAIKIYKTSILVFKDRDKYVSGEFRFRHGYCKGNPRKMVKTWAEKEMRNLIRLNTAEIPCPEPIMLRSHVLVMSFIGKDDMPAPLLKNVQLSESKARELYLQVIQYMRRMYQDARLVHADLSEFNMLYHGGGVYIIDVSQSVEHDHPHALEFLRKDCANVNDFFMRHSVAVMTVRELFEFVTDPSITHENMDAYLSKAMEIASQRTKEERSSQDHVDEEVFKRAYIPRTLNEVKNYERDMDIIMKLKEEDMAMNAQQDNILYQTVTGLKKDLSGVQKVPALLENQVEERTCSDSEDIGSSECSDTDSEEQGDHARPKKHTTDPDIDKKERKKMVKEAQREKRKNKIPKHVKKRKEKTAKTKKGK

[15] = target: T15, panel of 442 kinases (Homo sapiens, UniProt P22455); details: FGFR4; for remaining activity at 1 µM: read-out: % of control at 1 µM
T15 construct: purchased Ambit Biosciences (scanMAXX KINOMEscan)

[16] = 10 µM, read-out: % of control at 10 µM
[17] = kinase RSK4(Kin.Dom.1-N-terminal), read-out: RSK4(Kin.Dom.1-N-terminal) (% of control at 1 µM)
[18] = kinase RSK4(Kin.Dom.2-C-terminal), read-out: RSK4(Kin.Dom.2-C-terminal) (% of control at 1 µM)

T12 sequence (Q96NX5 whole entry): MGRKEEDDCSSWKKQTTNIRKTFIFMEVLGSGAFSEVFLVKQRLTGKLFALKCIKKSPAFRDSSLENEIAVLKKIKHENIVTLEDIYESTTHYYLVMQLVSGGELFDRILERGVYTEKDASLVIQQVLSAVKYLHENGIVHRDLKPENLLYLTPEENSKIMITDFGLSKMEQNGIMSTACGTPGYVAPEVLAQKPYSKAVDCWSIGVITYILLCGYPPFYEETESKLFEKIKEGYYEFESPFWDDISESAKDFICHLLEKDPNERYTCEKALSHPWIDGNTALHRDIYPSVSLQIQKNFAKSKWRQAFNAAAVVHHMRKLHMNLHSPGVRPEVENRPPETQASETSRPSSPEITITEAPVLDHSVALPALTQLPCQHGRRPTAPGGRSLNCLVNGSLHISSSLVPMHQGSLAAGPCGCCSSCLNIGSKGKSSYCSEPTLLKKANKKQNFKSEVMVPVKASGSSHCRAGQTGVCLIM
T3 sequence (P68400 whole entry): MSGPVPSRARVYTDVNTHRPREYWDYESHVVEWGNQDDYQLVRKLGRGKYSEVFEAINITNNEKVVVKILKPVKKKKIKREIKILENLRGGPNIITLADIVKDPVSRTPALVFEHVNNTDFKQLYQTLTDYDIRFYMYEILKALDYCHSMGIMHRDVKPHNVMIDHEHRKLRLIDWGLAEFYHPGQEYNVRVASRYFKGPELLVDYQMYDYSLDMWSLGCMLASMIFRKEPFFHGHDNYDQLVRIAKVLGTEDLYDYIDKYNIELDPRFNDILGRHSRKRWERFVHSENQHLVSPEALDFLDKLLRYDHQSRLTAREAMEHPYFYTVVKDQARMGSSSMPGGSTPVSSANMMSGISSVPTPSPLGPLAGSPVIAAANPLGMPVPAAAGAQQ
T10 sequence (Q8N5S9 whole entry): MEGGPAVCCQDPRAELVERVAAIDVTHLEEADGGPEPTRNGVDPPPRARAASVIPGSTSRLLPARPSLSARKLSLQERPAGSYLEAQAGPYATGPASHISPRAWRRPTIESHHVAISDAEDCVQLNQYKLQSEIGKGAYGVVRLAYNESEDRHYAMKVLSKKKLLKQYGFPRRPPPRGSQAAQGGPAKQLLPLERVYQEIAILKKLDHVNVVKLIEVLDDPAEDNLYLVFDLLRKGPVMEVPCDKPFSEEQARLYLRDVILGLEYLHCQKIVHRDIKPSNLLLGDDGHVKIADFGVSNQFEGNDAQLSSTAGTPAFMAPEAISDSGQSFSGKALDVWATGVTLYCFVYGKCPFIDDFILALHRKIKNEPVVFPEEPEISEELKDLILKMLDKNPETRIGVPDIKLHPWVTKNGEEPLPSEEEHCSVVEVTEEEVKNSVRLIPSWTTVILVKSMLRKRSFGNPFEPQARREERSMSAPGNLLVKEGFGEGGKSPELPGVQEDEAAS
T7 sequence (O75116 whole entry): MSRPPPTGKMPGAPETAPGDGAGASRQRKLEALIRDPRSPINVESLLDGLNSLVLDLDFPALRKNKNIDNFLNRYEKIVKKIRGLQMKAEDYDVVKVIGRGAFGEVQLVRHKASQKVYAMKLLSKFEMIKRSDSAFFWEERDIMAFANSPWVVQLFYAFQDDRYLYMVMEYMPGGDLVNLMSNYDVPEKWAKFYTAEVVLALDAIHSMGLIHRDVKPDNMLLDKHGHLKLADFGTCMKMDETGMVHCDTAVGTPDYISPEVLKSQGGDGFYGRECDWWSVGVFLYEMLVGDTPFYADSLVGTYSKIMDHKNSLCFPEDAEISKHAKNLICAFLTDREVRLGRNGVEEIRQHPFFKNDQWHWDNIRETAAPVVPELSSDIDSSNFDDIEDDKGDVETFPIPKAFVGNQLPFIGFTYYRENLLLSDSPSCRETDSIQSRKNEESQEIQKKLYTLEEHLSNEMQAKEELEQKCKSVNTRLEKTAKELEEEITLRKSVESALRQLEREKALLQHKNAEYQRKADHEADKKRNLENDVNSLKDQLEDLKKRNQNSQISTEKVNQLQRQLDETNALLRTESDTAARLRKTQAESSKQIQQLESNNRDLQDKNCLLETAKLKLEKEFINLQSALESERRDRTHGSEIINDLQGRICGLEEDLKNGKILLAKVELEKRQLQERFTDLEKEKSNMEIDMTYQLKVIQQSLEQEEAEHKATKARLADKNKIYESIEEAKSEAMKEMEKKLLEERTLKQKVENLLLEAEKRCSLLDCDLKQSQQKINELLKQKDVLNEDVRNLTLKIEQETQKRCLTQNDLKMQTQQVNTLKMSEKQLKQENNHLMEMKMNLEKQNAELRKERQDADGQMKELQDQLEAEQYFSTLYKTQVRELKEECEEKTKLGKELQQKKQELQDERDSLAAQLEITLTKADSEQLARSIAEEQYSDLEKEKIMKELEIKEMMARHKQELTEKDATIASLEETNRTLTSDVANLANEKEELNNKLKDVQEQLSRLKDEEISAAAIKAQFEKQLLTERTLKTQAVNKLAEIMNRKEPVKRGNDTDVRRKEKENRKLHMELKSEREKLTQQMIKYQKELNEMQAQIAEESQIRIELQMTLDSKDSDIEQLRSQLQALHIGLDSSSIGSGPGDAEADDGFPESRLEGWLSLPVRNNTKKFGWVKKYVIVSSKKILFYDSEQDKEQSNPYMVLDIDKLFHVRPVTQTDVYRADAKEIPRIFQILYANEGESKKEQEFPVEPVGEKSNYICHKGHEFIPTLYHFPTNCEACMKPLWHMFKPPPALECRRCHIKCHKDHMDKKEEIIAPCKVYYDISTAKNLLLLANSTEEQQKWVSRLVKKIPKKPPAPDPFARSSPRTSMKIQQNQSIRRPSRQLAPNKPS
T2 sequence (P49336 whole entry): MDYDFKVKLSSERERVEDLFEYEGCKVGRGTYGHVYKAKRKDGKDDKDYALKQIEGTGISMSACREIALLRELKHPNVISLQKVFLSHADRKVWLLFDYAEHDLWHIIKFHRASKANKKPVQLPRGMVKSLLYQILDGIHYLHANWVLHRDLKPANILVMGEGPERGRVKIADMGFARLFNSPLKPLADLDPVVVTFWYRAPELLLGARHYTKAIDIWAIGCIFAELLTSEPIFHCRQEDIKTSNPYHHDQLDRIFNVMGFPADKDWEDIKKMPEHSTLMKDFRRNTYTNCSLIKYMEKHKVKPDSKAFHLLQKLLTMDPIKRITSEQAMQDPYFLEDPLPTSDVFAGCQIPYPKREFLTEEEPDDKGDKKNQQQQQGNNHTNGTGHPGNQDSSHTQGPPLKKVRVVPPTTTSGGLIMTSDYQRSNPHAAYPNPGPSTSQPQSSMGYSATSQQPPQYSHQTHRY
T13 sequence (Q16620 32-822): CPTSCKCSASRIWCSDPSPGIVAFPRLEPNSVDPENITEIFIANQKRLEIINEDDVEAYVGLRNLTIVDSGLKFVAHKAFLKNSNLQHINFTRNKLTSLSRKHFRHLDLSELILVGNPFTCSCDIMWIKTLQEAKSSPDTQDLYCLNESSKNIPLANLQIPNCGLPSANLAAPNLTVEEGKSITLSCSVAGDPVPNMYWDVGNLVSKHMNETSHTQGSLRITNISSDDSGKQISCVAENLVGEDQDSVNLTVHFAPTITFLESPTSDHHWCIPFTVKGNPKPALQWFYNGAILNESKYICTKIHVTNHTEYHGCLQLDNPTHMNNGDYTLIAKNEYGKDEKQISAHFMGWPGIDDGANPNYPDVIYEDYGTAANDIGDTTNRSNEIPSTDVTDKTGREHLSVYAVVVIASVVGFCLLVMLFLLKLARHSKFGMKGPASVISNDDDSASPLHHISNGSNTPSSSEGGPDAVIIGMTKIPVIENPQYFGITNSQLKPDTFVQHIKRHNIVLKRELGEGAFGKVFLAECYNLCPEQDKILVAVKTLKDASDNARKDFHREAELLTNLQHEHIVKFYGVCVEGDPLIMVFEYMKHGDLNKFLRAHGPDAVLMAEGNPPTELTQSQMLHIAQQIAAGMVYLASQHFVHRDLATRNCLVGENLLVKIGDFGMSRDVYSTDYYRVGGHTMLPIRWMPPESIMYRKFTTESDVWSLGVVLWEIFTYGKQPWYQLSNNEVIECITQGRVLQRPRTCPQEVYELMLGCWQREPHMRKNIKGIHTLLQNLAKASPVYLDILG
T11 sequence (P10721 26-976 V559D): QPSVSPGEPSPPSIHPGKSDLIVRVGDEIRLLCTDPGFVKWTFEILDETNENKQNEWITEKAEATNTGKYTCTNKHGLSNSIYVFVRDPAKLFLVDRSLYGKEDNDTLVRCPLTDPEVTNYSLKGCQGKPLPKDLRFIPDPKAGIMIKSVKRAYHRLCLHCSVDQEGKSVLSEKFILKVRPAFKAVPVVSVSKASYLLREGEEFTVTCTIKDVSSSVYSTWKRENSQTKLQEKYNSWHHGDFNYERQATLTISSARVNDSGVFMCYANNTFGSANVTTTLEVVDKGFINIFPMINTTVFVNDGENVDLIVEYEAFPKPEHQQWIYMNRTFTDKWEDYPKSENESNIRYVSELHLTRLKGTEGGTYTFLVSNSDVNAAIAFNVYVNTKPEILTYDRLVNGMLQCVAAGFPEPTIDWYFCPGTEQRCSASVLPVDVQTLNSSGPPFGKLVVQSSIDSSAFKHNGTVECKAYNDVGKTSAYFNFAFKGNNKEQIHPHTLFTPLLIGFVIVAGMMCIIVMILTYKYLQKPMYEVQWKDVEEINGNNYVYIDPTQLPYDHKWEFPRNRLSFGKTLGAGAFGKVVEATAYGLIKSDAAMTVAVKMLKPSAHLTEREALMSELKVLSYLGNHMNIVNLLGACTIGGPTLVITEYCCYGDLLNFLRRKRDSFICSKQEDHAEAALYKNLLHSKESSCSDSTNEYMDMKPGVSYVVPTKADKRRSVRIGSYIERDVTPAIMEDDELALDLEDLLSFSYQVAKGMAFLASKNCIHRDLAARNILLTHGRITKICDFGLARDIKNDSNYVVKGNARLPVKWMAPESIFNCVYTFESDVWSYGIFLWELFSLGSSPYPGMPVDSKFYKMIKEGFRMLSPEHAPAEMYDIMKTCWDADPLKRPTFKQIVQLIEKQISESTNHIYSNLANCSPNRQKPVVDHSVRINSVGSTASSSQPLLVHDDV

Row | Compound | remaining activity at 1 µM [1] | remaining activity at 1 µM [2] | remaining activity at 1 µM [3] | remaining activity at 1 µM [4] | remaining activity at 1 µM [5, 17] | remaining activity at 1 µM [5, 18] | remaining activity at 1 µM [6] | remaining activity at 1 µM [7] | remaining activity at 1 µM [8] | remaining activity at 1 µM [9] | remaining activity at 1 µM [10] | remaining activity at 1 µM [11] | remaining activity at 1 µM [12] | remaining activity at 1 µM [13] | remaining activity at 1 µM [14] | remaining activity at 1 µM [15] | further results
1 | Nc1cc(C(F)(F)F)c(-c2cc(N3CCOCC3)nc(N3CCOCC3)n2)cn1 [Buparlisib] | 100% | 100% | 91% | 93% | 99% | 100% | 87% | 100% | 100% | 100% | 100% | 100% | 100% | 96% | 89% | 100% | remaining activity at 10 µM [1, 16]: 100%; remaining activity at 10 µM [2, 16]: 100%; remaining activity at 10 µM [3, 16]: 100%; remaining activity at 10 µM [4, 16]: 100%; remaining activity at 10 µM ([5]; kinase RSK4(Kin.Dom.1-N-terminal), read-out: RSK4(Kin.Dom.1-N-terminal) (% of control at 10 µM)): 100%; remaining activity at 10 µM ([5]; kinase RSK4(Kin.Dom.2-C-terminal), read-out: RSK4(Kin.Dom.2-C-terminal) (% of control at 10 µM)): 100%; remaining activity at 10 µM ([6]; 10 µM, read-out: TEC (% of control at 10 µM)): 100%; remaining activity at 10 µM ([7]; 10 µM, read-out: ROCK2 (% of control at 10 µM)): 89%; remaining activity at 10 µM [8, 16]: 100%; remaining activity at 10 µM ([9]; 10 µM, read-out: SRMS (% of control at 10 µM)): 100%; remaining activity at 10 µM [10, 16]: 100%; remaining activity at 10 µM [11, 16]: 66%; remaining activity at 10 µM [12, 16]: 100%; remaining activity at 10 µM ([13]; 10 µM, read-out: TRKB (% of control at 10 µM)): 80%; remaining activity at 10 µM ([14]; 10 µM, read-out: RIOK1 (% of control at 10 µM)): 81%; remaining activity at 10 µM [15, 16]: 100%
2 | COc1ncc(-c2ccc3nccc(-c4ccnnc4)c3c2)cc1NS(=O)(=O)c1ccc(F)cc1F [Omipalisib] | 100% | 70% | 100% | 100% | 88% | 79% | 100% | 89% | 91% | 90% | 100% | 96% | 100% | 100% | 100% | 100% | –
3 | FC(F)c1nc2ccccc2n1-c1nc(N2CCOCC2)nc(N2CCOCC2)n1 [ZSTK474, 2-(difluoromethyl)-1-[4,6-di(4-morpholinyl)-1,3,5-triazin-2-yl]-1H-benzimidazole] | 100% | 80% | 90% | 92% | 81% | 91% | 89% | 86% | 91% | 80% | 100% | 84% | 91% | 100% | 84% | 100% | –
4 | Cn1c(=O)n(-c2ccc(C(C)(C)C#N)cc2)c2c3cc(-c4cnc5ccccc5c4)ccc3ncc21 [Dactolisib, 2-methyl-2-[4-(3-methyl-2-oxo-8-quinolin-3-yl-2,3-dihydroimidazo[4,5-c]quinolin-1-yl)-phenyl] propionitrile] | 100% | 100% | 64% | – | 71% | 82% | 96% | 60% | 90% | 88% | 79% | 65% | 87% | 61% | 66% | 89% | –
